Activity calls are given as the source filed them. The rule behind the calls is not given here.
Key:
[1] = biological target: DNA topoisomerase 2-alpha (Homo sapiens) (UniProt P11388); test: Complete inhibition of human topoisomerase 2alpha-mediated relaxation of supercoiled pBR322 plasmid DNA at 50 uM after 15 mins using ethidium bromide staining by agarose-gel electrophoresis
[2] = biological target: DNA topoisomerase 2-alpha (Homo sapiens) (UniProt P11388); test: Complete inhibition of human topoisomerase 2alpha-mediated relaxation of supercoiled pBR322 plasmid DNA at 100 uM after 15 mins using ethidium bromide staining by agarose-gel electrophoresis
[3] = biological target: DNA topoisomerase 2-alpha (Homo sapiens) (UniProt P11388); test: Partial inhibition of human topoisomerase 2alpha-mediated relaxation of supercoiled pBR322 plasmid DNA at 25 uM after 15 mins using ethidium bromide staining by agarose-gel electrophoresis
[4] = biological target: DNA topoisomerase 2-alpha (Homo sapiens) (UniProt P11388); test: Inhibition of human topoisomerase 2alpha-mediated relaxation of supercoiled pBR322 plasmid DNA after 15 mins using ethidium bromide staining by agarose-gel electrophoresis

DNA topoisomerase 2-alpha (Homo sapiens), sequence (P11388 whole entry): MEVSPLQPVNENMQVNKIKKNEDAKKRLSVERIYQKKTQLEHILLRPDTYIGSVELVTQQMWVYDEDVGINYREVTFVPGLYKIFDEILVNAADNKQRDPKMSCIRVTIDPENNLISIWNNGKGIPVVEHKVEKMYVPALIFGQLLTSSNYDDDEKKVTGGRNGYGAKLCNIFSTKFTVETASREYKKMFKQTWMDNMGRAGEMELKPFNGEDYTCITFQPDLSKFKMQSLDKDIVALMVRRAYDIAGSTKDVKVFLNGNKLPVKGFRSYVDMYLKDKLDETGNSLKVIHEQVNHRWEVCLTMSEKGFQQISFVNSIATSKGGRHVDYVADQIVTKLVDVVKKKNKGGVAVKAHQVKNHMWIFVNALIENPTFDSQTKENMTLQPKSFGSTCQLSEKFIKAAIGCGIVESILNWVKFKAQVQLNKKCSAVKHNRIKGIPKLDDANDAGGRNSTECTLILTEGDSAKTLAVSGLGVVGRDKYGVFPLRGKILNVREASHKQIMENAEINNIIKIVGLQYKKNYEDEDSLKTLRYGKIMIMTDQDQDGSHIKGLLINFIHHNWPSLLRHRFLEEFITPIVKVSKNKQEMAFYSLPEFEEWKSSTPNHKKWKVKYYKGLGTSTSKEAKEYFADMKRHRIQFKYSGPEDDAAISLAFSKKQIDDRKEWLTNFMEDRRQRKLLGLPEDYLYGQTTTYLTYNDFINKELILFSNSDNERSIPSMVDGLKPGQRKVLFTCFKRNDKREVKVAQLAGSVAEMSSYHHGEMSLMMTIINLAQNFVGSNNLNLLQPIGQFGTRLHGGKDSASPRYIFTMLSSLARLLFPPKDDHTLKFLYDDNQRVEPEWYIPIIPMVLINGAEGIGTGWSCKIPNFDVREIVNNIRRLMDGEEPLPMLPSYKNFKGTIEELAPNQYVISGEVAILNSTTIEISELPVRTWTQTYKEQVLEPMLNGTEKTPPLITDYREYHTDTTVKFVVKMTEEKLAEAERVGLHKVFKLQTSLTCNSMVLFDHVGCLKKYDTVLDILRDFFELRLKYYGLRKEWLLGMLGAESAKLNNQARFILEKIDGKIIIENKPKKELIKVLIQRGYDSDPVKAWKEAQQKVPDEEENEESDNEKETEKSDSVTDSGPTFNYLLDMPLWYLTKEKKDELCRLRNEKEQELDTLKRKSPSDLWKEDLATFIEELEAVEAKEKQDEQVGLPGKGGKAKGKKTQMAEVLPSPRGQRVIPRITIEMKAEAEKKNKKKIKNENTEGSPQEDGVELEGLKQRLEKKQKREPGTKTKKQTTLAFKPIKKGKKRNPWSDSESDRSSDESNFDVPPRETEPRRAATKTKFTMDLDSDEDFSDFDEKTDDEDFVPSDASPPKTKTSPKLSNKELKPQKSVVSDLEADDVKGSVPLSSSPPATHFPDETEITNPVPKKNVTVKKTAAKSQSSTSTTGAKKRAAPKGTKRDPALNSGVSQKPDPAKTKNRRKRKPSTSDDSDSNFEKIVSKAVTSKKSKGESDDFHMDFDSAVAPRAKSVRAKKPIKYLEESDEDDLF

inhibition [1]	inhibition [2]	inhibition [3]	inhibition [4]	Compound
Active	Active	Active	Dose-dependent effect	CC(=O)[C@@]1(C)CC[C@H]2[C@@](C)(CC[C@@]3(C)[C@@H]4CC(C)(C)CC[C@]4(C)CC[C@]23C)[C@@H]1CC(=O)O
Active	Active	Active	Dose-dependent effect	C[C@@H](C(=O)O)[C@@]1(C)CC[C@H]2[C@@](C)(CC[C@@]3(C)[C@@H]4CC(C)(C)CC[C@]4(C)CC[C@]23C)[C@@H]1CC(=O)O
